Where no end group is shown, it is not given here.
Tests used:
[1] = biological target: T1, CRHR2 alpha (Homo sapiens, UniProt Q13324); experiment: HTRF cAMP assay in HEK-TREX-CRHR2 alpha cells, with or without UCN2 pre-treatment; assay type: cell-based; conditions: n = 3
T1 construct: host or cells: HEK-TREX-CRHR2 alpha cells, non-induced
T1 sequence (Q13324 1-411): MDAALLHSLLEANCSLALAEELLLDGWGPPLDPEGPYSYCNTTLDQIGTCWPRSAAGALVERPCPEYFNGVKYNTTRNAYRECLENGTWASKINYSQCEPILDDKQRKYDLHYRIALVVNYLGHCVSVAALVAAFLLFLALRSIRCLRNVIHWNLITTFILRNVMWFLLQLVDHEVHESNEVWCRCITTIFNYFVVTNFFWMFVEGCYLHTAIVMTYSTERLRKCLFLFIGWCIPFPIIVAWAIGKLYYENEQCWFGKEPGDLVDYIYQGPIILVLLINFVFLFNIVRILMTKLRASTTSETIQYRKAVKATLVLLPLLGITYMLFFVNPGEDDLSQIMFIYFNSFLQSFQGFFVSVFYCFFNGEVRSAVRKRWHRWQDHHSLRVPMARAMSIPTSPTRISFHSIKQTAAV
Experimental: To determine whether CRHR2 functional desensitization in response to UCN2 occurred tissue-autonomously, we turned to CRHR2-transfected HEK 293 cells.
To measure cell-based CRHR2 agonist activity a HTRF (Homogenous Time-Resolved Fluorescence) cAMP detection kit (Cisbio cAMP dynamic 2 assay kit) was performed in non-induced HEK-TREX-CRHR2 alpha cells (Fisher Scientific). Cells were plated one day before the assay in 384-well plates at 1500 cells/well and assayed in adherent mode by removing the media, patting on paper towel and adding 10 µl of 1 µM of UCN2 or vehicle control for 1 h. Cells were gently washed 3 times with wash buffer and rested for 6 h in incubator. Following rest, cells were restimulated with titrating concentrations of UCN2 with IBMX, at a final concentration of 250 µM. Reactions continued for 30 min at 37 °C followed by addition of detection reagents and a one-hour minimum incubation at room temperature. HTRF, a competitive immunoassay, produces a fluorescence signal read with an Envision multi-plate reader using an excitation of 330 nm and emissions of 615 and 665 nm. By interpolation from a cAMP standard curve, raw data were converted to nm cAMP and then expressed as percent effect of 1 µM UCN2 in vehicle control pretreatment conditions.

[2] = test system: WT animals; experiment: Blood glucose and plasma insulin 15 min after intraperitoneal UCN2; assay type: in vivo, mouse; conditions: 1 mg/kg IP, 15 min post-dose; n = 5
Experimental: WT animals were injected IP with 1 mg/kg recombinant UCN2 or an equivalent volume of saline. Blood glucose and plasma insulin measurements were made pre-injection and 15 min post-dose. 20 min after the injection animals were euthanized and gastrocnemius muscle was dissected and snap-frozen in liquid nitrogen. The tissue was pulverized and homogenized in 700 ul SDS-buffer (0.1 M Tris/HCl 7.6, 4% SDS, 0.1 mM DTT), heated for 5 min at 95 °C and sonicated (Bioruptor®Plus Diagenode, 30 sec on-30sec off cycle for 10 cycles). After centrifugation for 10 min at 10,000 x g at 15 °C, the proteins in the supernatant were precipitated with 4X (volumes) ice-cold acetone (−20 °C) and stored at −20 °C overnight. The precipitates were centrifuged for 15 min at 10,000 × g, acetone was decanted, and the resulting pellets were dried for 10 min at room temperature. The pellet was resuspended in 500ul denaturing buffer (8 M urea and 10 mM Tris, pH 8.5) and sonicated (Bioruptor®Plus Diagenode, 30 s on-30 s off cycle for 5 cycles). The protein concentration was determined with a Bradford assay (Bio-Rad, Hercules, CA, USA). The proteins were reduced with dithiothreitol (DTT) 5 mM final concentration for 60 min at 37 °C and alkylated with iodoacetamide (8 mM final concentration) for 45 min at RT in the dark. […]

[3] = test system: AKT1S1, IRS1, AKT phosphorylation; experiment: Ex vivo soleus muscle insulin signaling (Western blot); parameters: species or system mouse; conditions: 100 nM UCN2 pre-treatment, n = 2
Experimental: Soleus muscle was removed from fed animals anesthetized by an intraperitoneal injection of pentobarbital (10 mg/100 g body weight). Dissected soleus muscles were suspended at 5 mN of tension in incubation chambers (Model 610/820 M, Danish Myo-Technology, Denmark) containing Krebs-Ringer-Buffer supplemented with 0.1% BSA, 2 mM pyruvate and 8 mM Mannitol. During the entire incubation period the KRB was maintained at 30 °C and oxygenated with 95% O2 and 5% CO2. Following 10 min of pre-incubation muscles were incubated in Krebs buffer +/− 100 nM (−7.0 log[M]) UCN2. At the next time point, 30 min later, muscles were placed in baths containing Krebs buffer +/− 100 nM (−7.0 [M]) UCN2. At the next time point, 15 min later, muscles were placed in baths containing Krebs buffer +/− 100 nM (−7.0 log[M]) UCN2 + /− 60 nM Insulin (Actrapid, Novo Nordisk, Bagsvaerd, Denmark) for 15 min. For the ex vivo glucose uptake studies, 1 mM [^3H]2-deoxyglucose (Perkin-Elmer) and 7 mM [^14C]mannitol (Perkin-Elmer) was also added at this time. Muscles that were in saline in the first bath, saline in the second bath, and saline in the third bath were assigned to the SSS group. Muscles that were in saline in the first bath, saline in the second bath, and UCN2 in the third bath were assigned to the SSU group. […]

Question: What does the source list for “IVLSLDVPIGLLQILLEQARARAAREQATTNARILARVGHC-NH2 (C-terminus assumed) [UCN2, Urocortin 2]”?
Answer: cAMP response to subsequent UCN2 after UCN2 pre-treatment ([1]; 1 µM UCN2 for 1 h, wash, 6 h rest, restimulation): significantly blunts the cAMP activation response; cAMP response to increasing concentrations ([1]; CRHR2-transfected HEK 293 cells, 30 min at 37 °C, IBMX 250 µM): increases in a dose-dependent manner; blood glucose levels after injection [2]: significantly increased blood glucose levels; plasma insulin after injection [2]: no significant difference; AKT1S1, IRS1 and AKT phosphorylation after UCN2 pre-treatment ex vivo [3]: increased AKT1S1, IRS1, and AKT phosphorylation
